Test results from publication PMC5614969, “High-Affinity Functional Fluorescent Ligands for Human β-Adrenoceptors” (Scientific Reports, 2017).
Several values for one entry are separate records, joined by “and”; a condition that tells them apart may be missing. Equal entries are not always repeated. Entries after “also recorded” stand apart in the source; their conditions may differ.

How the values were obtained:
[1] = Fluorescence increase upon addition of SDS to probe solutions; assay type: physicochemical; details: addition of 0.1% SDS to ligand in PBS pH 7.4 with 1 mg/ml BSA; mean ± SD, n=3
Procedure: Fluorescence spectra of 1 µM solution of fluorescent dyes and ligands in PBS pH 7.4, PBS pH 7.4 + 1 mg/ml BSA (Sigma) and with or without 0.1% SDS (Acros Organics) were recorded on a multiwell plate reader Spark 20 M (Tecan) in half-area black 96-well plates (Greiner Bio-One, cat. 675076) at room temperature (25 °C) after 2 h incubation. Fluorescence emission was recorded from 600 nm to 800 nm with excitation at 580 nm. The emission bandwidth for all measurements was set to 5 nm. The spectra were averaged from 3 individual experiments. Ratios F(BSA+SDS)/F(BSA) of fluorescence signals at 635 nm for 610CP, 645 nm for BODIPY 630/650-X and 655 nm for KK114 conjugates were calculated. The obtained results are summarized (Table 1 and Supplementary Fig. 7).

[2] = molecular target: T1, β2AR (Homo sapiens, UniProt P07550); assay: cAMP FRET sensor (TEpacVV) agonist assay in HEK 293 cells; assay type: cell-based; details: HEK 293 expressing 3′,5′-cAMP FRET sensor, 30 min incubation, room temperature; for EC50: read-out: EC50 (mean ± SD)
T1 sequence (P07550 whole entry): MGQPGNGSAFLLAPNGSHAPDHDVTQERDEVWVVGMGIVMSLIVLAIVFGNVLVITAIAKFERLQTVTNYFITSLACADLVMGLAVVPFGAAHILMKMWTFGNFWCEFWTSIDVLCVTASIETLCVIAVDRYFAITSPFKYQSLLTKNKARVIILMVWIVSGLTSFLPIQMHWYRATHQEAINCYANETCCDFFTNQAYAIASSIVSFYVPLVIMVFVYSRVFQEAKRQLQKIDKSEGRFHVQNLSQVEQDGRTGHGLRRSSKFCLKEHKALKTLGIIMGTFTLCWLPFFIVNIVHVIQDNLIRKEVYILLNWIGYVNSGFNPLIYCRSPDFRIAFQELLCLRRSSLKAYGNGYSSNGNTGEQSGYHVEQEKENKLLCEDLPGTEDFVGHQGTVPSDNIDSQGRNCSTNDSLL
Procedure: Upon cAMP binding, the sensor undergoes a conformational change resulting in a decrease of the FRET efficiency between two fluorescent proteins: mTurquoise - a version of cyan fluorescent protein (CFP) as the donor, and yellow fluorescent protein (YFP) as the acceptor (Fig. 3a).
The intracellular cyclic adenosine monophosphate (cAMP) levels were determined with HEK 293 cells expressing a 3′,5′-cAMP FRET sensor. The cells were a generous gift from Ruud Hovius from École poly-technique fédérale de Lausanne (EPFL). The cAMP production induces a conformational switch in ^TEpac^VV and causes a decrease in FRET efficiency, i.e. a decreased energy transfer between the two fluorescent proteins (donor mTurquoise and acceptor YFP)[32].
(§1) The culture was maintained by subculturing the cells every 4 to 5 days using the standard trypsinization procedure. Before measurements, cells were trypsinated and transferred in a 96-well glass bottom plate (MatTek Corporation; Cat. No. P96GC-1.5–5-F) to contain 10,000–30,000 cells per well in 200 µL of DMEM media. After 24 h incubation in 5% CO2 at 37 °C, the cells were washed with HBSS pH 7.2 (200 µL), and the wells were filled with 200 µL HBSS. The DMSO stock solutions of the fluorescent probes were diluted 5,000 times in HBSS and used in experiments. […] The fluorescent ligand solutions of different concentrations in HBSS were premixed with the isoprenaline solution. 50 µL of a final solution was added to each well and the measurement was started upon addition and continued for 1 h in 10 min intervals between the readouts (inclusive).
(§2) The ligands were added using an automated pipette to initiate the sensor response. FRET readout from the cAMP sensor was performed on a multiwell plate reader Spark 20 M (Tecan) at room temperature (25 °C). Fluorescence readout amplitudes were calculated from time series for different ligand concentrations, following background subtraction (media only). […] Data were derived from 3 independent experiments and each independent experiment was performed in triplicate.
(§3) Sensor response R(CFP/FRET) was calculated using (1):1 R(CFP/FRET)=(FimTurquoise−FbkgmTurquoise)/(FiFRET−FbkgFRET) where F i ^mTurquoise – mTurquoise fluorescence intensity in the wells with cells; F bkg ^mTurquoise - mTurquoise fluorescence intensity in the control wells without cells; F i ^FRET – FRET signal intensity in the wells with cells; F bkg ^FRET – FRET signal intensity in the control wells without cells. For every result, R(CFP/FRET) ratio was normalized to the R(CFP/FRET) response of DMSO sample.

[3] = molecular target: T2, β2AR-YFP fusion protein (Homo sapiens, UniProt P07550); assay: Confocal imaging of living U2OS cells expressing β2AR-YFP (staining, internalization, competitive displacement, no-wash); assay type: cell-based; details: for Receptor internalization / Staining performance: U2OS cells expressing β2AR-YFP; for Staining performance: 610CP ligands at 1.9 µM (19) and 2.5 µM (16)
T2 construct: host or cells: U2OS
T2 sequence (P07550 whole entry, the tested form may be a part): as the sequence (P07550 whole entry) above
Procedure: U2OS cells (ATCC) were cultured in high-glucose DMEM (Dulbecco’s Modified Eagle medium, Thermo Fisher Scientific) supplemented with GlutaMAX-1 (Thermo Fisher Scientific) and 10% fetal bovine serum (FBS) (Thermo Fisher Scientific) in a humidified 5% CO2 incubator at 37 °C. CAPAN-1 cells (ATCC) were cultured in McCoy’s 5a Medium Modified supplemented with 10% fetal bovine serum (FBS) (Thermo Fisher Scientific) in a humidified 5% CO2 atmosphere at 37 °C. Cells were split every 3–5 days or at confluence. Cells were seeded in glass bottom 12-well plates (MatTek Corporation). […] We used 200,000 cells per well, 3 µg plasmid DNA and 3 µl of Lipofectamine 2000.
We performed imaging 48–72 h after transfection. Staining of the transfected cell was performed in Hanks’ balanced salt solution (HBSS, Lonza) without Phenol Red for 30–40 min at room temperature (to minimize internalization). Samples were washed two times with HBSS, and cells were imaged in DMEM (Thermo Fisher Scientific) supplemented with GlutaMAX-1 (Thermo Fisher Scientific) and 10% fetal bovine serum (FBS). For all staining experiments with cells, stock solutions of dyes in DMSO were used, and final DMSO content was < 0.5%. Imaging was performed on Leica SP8 (Leica Microsystems) or Abberior STED (Abberior Instruments GmbH) microscopes.
Competitive displacement experiment was performed in living U2OS cells expressing β2AR-YFP fusion protein.
Confocal imaging was performed on a Leica SP8 (Leica Microsystems, Mannheim, Germany) inverted confocal microscope equipped with an HC PL APO CS2 63x/1.40 Oil objective. Images were acquired using a 700 Hz bidirectional scanner, pixel size of 70 nm × 70 nm, pinhole of 95.6 µm diameter(1 AU) and frame averaging of 2.

[4] = tested on: β1- and β2-adrenoceptors; set-up: method as in PMID 19875286; details: racemic BI-167107; cited from earlier work
[5] = molecular target: T1, β2AR; assay: Staining and competitive binding in CAPAN-1 cells at endogenous β2AR expression; assay type: cell-based; details: 100 nM probe (5 nM ab118171) with 10 µM BI-167107 or carazolol
Procedure: To study the selectivity of β2AR staining at the endogenous expression levels, which are much lower compared to those in transiently β2AR expressing U2OS cells, we tested the performance of BI-167107 probes in pancreatic CAPAN-1 cells (Fig. 7c–f). […] Low density of β2AR in the plasma membrane of CAPAN-1 cells allowed us to measure of the lateral resolution in the STED images. When the cells were incubated with 100 nM BI-PEG-KK114 (18) ligand, we observed two-fold improvement in the resolution resulting in apparent structures of ~100 nm (Fig. 7d; Supplementary Table 4).
For staining of CAPAN-1 cells, fluorescent probes or mixtures of a probe and a competitor were incubated in McCoy’s 5a Medium Modified supplemented with 10% fetal bovine serum (FBS) for 30–40 min at room temperature. Afterwards, the samples were washed two times with HBSS, and cells were imaged in DMEM (Thermo Fisher Scientific) supplemented with GlutaMAX-1 (Thermo Fisher Scientific) and 10% fetal bovine serum (FBS). Imaging performed on Leica SP8 (Leica Microsystems) or Abberior STED (Abberior Instruments GmbH) microscopes.

[6] = pH dependence of ligand fluorescence; assay type: physicochemical
Procedure: pH dependence of βAR ligands fluorescence were recorded on a multiwell plate reader Spark 20 M (Tecan) in 96-well glass bottom plates (MatTek Corporation; Cat. No. PBK96G-1.5-5-F) in PBS solutions (pH 4.7–8.0) at room temperature (25 °C). The 100x stock solutions of ligands were prepared in DMSO.

[7] = molecular target: T1, β2AR; assay: cAMP FRET sensor assay, competitive displacement of isoprenaline by antagonists in HEK293 cells; assay type: cell-based
Procedure: as §1, with “experiments. In the antagonist inhibition experiment, we used β1 and β2 adrenoceptor agonist isoprenaline (abcr GmbH) as a positive control causing cAMP elevation.” for “experiments.”
as §2, §3
K i ^app were calculated using the Cheng-Prusoff equation (2):2 Kiapp=IC50/[A]/EC50+1 where [A] – concentration of the isoprenaline; IC50 – fitted half maximal inhibitory concentration of labeled antagonist; EC50 – fitted half maximal response concentration of isoprenaline.

[8] = molecular target: T2, β2AR-YFP fusion protein; assay: Confocal imaging of living U2OS cells expressing β2AR-YFP (staining, internalization, competitive displacement, no-wash); assay type: cell-based; details: 90 min, 100 nM carazolol-KK114 (24), 5 nM ab118171, no washing
[9] = U2OS β2AR-YFP, 40 min, room temperature, washed

Compound | Fluorescence increase (F BSA+SDS / F BSA) [1] | EC50 (mean ± SD, nM) [2] | EC50 [2] | Receptor internalization [3] | Staining performance [3] | agonist classification at β-adrenoceptors [4] | competitive binding with excess unlabeled ligand [5] | fluorescence decrease ([6]; at pH 4.7 and 8.0 versus pH 6.0–7.0) | Competitive displacement ([3]; U2OS β2AR-YFP, 100 nM probe (5 nM ab118171) with 10 µM unlabeled BI-167107 or carazolol, 30 min) | confocal staining at 100 nM [3, 9] | confocal staining at 250 nM [3, 9] | IC50 ([7]; displacement of 17 nM isoprenaline, readout immediately after addition of ligands (0 min), read-out: IC50 (mean ± SD)) | Ki ([7]; read-out: Ki app (mean ± SD)) | fluorescence reduction ([6]; pH 7.0 compared to pH 4.7) | no-wash imaging staining [8] | confocal staining at 5 nM ([3]; U2OS β2AR-YFP, 5 nM, 40 min, room temperature, washed)
Cc1c(CCC(=O)NCCCCNC(=O)c2ccc(C(=O)[O-])c(C3=C4C=CC(=[N+](C)C)C=C4C(C)(C)c4cc(N(C)C)ccc43)c2)cccc1CC(C)(C)NCC(O)c1ccc(O)c2c1OCC(=O)N2 (stereo not drawn) [BI-4C-610CP (16)] | 1.5±0.4 | low nanomolar | 7.3 ± 1.4 nM | Yes | satisfactory images; also recorded: Medium |  |  |  |  |  |  |  |  |  |  | 
Cc1ccccc1CC(C)(C)NCC(O)c1ccc(O)c2c1OCC(=O)N2 (stereo not drawn) [BI-167107] |  |  |  |  |  | full agonist |  |  |  |  |  |  |  |  |  | 
Cc1c(CCC(=O)NCCOCCOCCNC(=O)c2ccc(C(=O)[O-])c(C3=C4C=CC(=[N+](C)C)C=C4C(C)(C)c4cc(N(C)C)ccc43)c2)cccc1CC(C)(C)NCC(O)c1ccc(O)c2c1OCC(=O)N2 (stereo not drawn) [BI-PEG-610CP (19)] | 1.2±0.3 | low nanomolar | 0.6 nM and 0.62 nM |  | None |  |  |  |  |  |  |  |  |  |  | 
Cc1c(CCC(=O)NCCOCCOCCNC(=O)CCCCCNC(=O)COc2ccc(/C=C/C3=[N+]4C(=Cc5ccc(-c6cccs6)n5[B-]4(F)F)C=C3)cc2)cccc1CC(C)(C)NCC(O)c1ccc(O)c2c1OCC(=O)N2 (stereo not drawn) [BI-PEG-BDY630 (17)] | 10.5±1.7 |  | 0.2 nM and 0.18 nM | Yes | Strong |  | strong off-target staining | about 40% | Low background fluorescence | labelled the cells efficiently | unspecific fluorescence |  |  |  |  | 
CC(C)(CCNC(=O)CCOCCOCCNC(=O)COc1ccc(/C=C/C2=[N+]3C(=Cc4ccc(-c5cccs5)n4[B-]3(F)F)C=C2)cc1)NC[C@H](O)COc1cccc2[nH]c3ccccc3c12 [ab118171, reference compound] | 8.2±3.9 |  |  | Weak | Strong |  | not possible to achieve full displacement |  |  | non-specific dotted background | non-specific dotted background | 74.7 ± 36.3 nM | 4.8 ± 3.6 nM | almost two-fold | strong off-target staining | specific membrane localized fluorescence
